Data: ChEMBL document CHEMBL3885881, “DrugMatrix”

Organism: Rattus norvegicus
Test: DrugMatrix - Regimen: Daily Repeat
Type: toxicity, organism-based, Sprague-Dawley
Parameters: regimen Daily Repeat, gender Male, age 6-8 weeks
Conditions: in vivo, po, route oral GAVAGE, vehicle .5 % CMC; for ABSOLUTE BASOPHIL / ABSOLUTE EOSINOPHIL / ABSOLUTE LYMPHOCYTE / ABSOLUTE MONOCYTE / ABSOLUTE SEGMENTED NEUTROPHIL / BASOPHIL / EOSINOPHIL / ERYTHROCYTE COUNT / HEMATOCRIT / HEMOGLOBIN / LEUKOCYTE COUNT / LYMPHOCYTE / MEAN CORPUSCULAR HEMOGLOBIN / MEAN CORPUSCULAR HEMOGLOBIN CONCENTRATION / MONOCYTE / NEUTROPHIL / NUCLEATED RED BLOOD CELLS / PLATELET COUNT: tissue Blood; for ALANINE AMINOTRANSFERASE / ALBUMIN / ALKALINE PHOSPHATASE / ASPARTATE AMINOTRANSFERASE / BLOOD UREA NITROGEN / CARBON DIOXIDE / CHLORIDE / CHOLESTEROL / CREATINE PHOSPHOKINASE / CREATININE / GLUCOSE / LACTATE DEHYDROGENASE / LIPASE / PHOSPHORUS / POTASSIUM / SODIUM / TOTAL BILIRUBIN / TOTAL PROTEIN / URIC ACID: tissue Plasma
[1] = 0 mg/kg, 72 h, dose level Control, time 3 day
[2] = 0 mg/kg, 120 h, dose level Control, time 5 day
[3] = 10 mg/kg, 72 h, dose level Low, time 3 day

For `O=C1C(CC[S+]([O-])c2ccccc2)C(=O)N(c2ccccc2)N1c1ccccc1` (stereo not given) [SULFINPYRAZONE], the “ABSOLUTE BASOPHIL” value [1] was 0 CELLS/uL, the “ABSOLUTE EOSINOPHIL” value [1] was 171.33 CELLS/uL and the “ABSOLUTE LYMPHOCYTE” value [1] was 13776.5 CELLS/uL. The “ABSOLUTE MONOCYTE” value [1] was 180.83 CELLS/uL, the “ABSOLUTE SEGMENTED NEUTROPHIL” value [1] was 1121.33 CELLS/uL and the BASOPHIL [1] was 0%. The EOSINOPHIL [1] was 1%, the “ERYTHROCYTE COUNT” value [1] was 5.56 x10E6/uL and the HEMATOCRIT [1] was 34.75%. The HEMOGLOBIN [1] was 13.68 G/DL, the “LEUKOCYTE COUNT” value [1] was 15.25 x10E3/uL and the LYMPHOCYTE [1] was 90.17%. The “MEAN CORPUSCULAR HEMOGLOBIN” value [1] was 24.6 pg, the “MEAN CORPUSCULAR HEMOGLOBIN CONCENTRATION” value [1] was 39.4 G/DL and the MONOCYTE [1] was 1.17%. The NEUTROPHIL [1] was 7.67%, the “NUCLEATED RED BLOOD CELLS” value [1] was 0 /100WBC and the “PLATELET COUNT” value [1] was 1342 x10E3/uL. The “ALANINE AMINOTRANSFERASE” value [1] was 49.67 u/L, the ALBUMIN [1] was 4.15 G/DL and the “ALKALINE PHOSPHATASE” value [1] was 346.83 u/L. The “ASPARTATE AMINOTRANSFERASE” value [1] was 108.17 u/L, the “BLOOD UREA NITROGEN” value [1] was 17.33 mg/dL and the “CARBON DIOXIDE” value [1] was 25 mmol/L. For the same compound, the CHLORIDE [1] was 100.83 MEQ/L, the CHOLESTEROL [1] was 66.83 mg/dL and the “CREATINE PHOSPHOKINASE” value [1] was 788 u/L. The CREATININE [1] was 0.18 mg/dL, the GLUCOSE [1] was 151.67 mg/dL and the “LACTATE DEHYDROGENASE” value [1] was 982.5 u/L. The LIPASE [1] was 10.33 u/L, the PHOSPHORUS [1] was 11.23 mg/dL and the POTASSIUM [1] was 6.37 MEQ/L. For the same compound, the SODIUM [1] was 141.02 MEQ/L, the “TOTAL BILIRUBIN” value [1] was 0.18 mg/dL and the “TOTAL PROTEIN” value [1] was 5.9 G/DL. The “URIC ACID” value [1] was 1.8 mg/dL, the “ABSOLUTE BASOPHIL” value [2] was 0 CELLS/uL and the “ABSOLUTE EOSINOPHIL” value [2] was 69 CELLS/uL. For the same compound, the “ABSOLUTE LYMPHOCYTE” value [2] was 13632.83 CELLS/uL, the “ABSOLUTE MONOCYTE” value [2] was 139.83 CELLS/uL and the “ABSOLUTE SEGMENTED NEUTROPHIL” value [2] was 1225 CELLS/uL. For the same compound, the BASOPHIL [2] was 0%, the EOSINOPHIL [2] was 0.33% and the “ERYTHROCYTE COUNT” value [2] was 5.52 x10E6/uL. The HEMATOCRIT [2] was 33.98%, the HEMOGLOBIN [2] was 13.22 G/DL and the “LEUKOCYTE COUNT” value [2] was 15.07 x10E3/uL. The LYMPHOCYTE [2] was 90.83%, the “MEAN CORPUSCULAR HEMOGLOBIN” value [2] was 23.95 pg and the “MEAN CORPUSCULAR HEMOGLOBIN CONCENTRATION” value [2] was 38.9 G/DL. The MONOCYTE [2] was 0.83%, the NEUTROPHIL [2] was 8% and the “NUCLEATED RED BLOOD CELLS” value [2] was 0 /100WBC. The “PLATELET COUNT” value [2] was 1196 x10E3/uL, the “ALANINE AMINOTRANSFERASE” value [2] was 49.17 u/L and the ALBUMIN [2] was 4.2 G/DL. The “ALKALINE PHOSPHATASE” value [2] was 352.33 u/L, the “ASPARTATE AMINOTRANSFERASE” value [2] was 89.67 u/L and the “BLOOD UREA NITROGEN” value [2] was 18 mg/dL. For the same compound, the “CARBON DIOXIDE” value [2] was 27.67 mmol/L, the CHLORIDE [2] was 101 MEQ/L and the CHOLESTEROL [2] was 72.83 mg/dL. For the same compound, the “CREATINE PHOSPHOKINASE” value [2] was 417.5 u/L, the CREATININE [2] was 0.18 mg/dL and the GLUCOSE [2] was 150.5 mg/dL. For the same compound, the “LACTATE DEHYDROGENASE” value [2] was 517.33 u/L, the LIPASE [2] was 9 u/L and the PHOSPHORUS [2] was 11.87 mg/dL. The POTASSIUM [2] was 6.57 MEQ/L, the SODIUM [2] was 143.62 MEQ/L and the “TOTAL BILIRUBIN” value [2] was 0.2 mg/dL. For the same compound, the “TOTAL PROTEIN” value [2] was 6.08 G/DL, the “URIC ACID” value [2] was 1.45 mg/dL and the “ABSOLUTE BASOPHIL” value [3] was 0 CELLS/uL. For the same compound, the “ABSOLUTE EOSINOPHIL” value [3] was 153.67 CELLS/uL, the “ABSOLUTE LYMPHOCYTE” value [3] was 13327.33 CELLS/uL and the “ABSOLUTE MONOCYTE” value [3] was 157.33 CELLS/uL. For the same compound, the “ABSOLUTE SEGMENTED NEUTROPHIL” value [3] was 995 CELLS/uL, the BASOPHIL [3] was 0% and the EOSINOPHIL [3] was 1%. The “ERYTHROCYTE COUNT” value [3] was 5.31 x10E6/uL, the HEMATOCRIT [3] was 34.03% and the HEMOGLOBIN [3] was 13.67 G/DL. The “LEUKOCYTE COUNT” value [3] was 14.63 x10E3/uL, the LYMPHOCYTE [3] was 91% and the “MEAN CORPUSCULAR HEMOGLOBIN” value [3] was 25.73 pg. For the same compound, the “MEAN CORPUSCULAR HEMOGLOBIN CONCENTRATION” value [3] was 40.17 G/DL, the MONOCYTE [3] was 1% and the NEUTROPHIL [3] was 7%. The “NUCLEATED RED BLOOD CELLS” value [3] was 0 /100WBC, the “PLATELET COUNT” value [3] was 1352.33 x10E3/uL and the “ALANINE AMINOTRANSFERASE” value [3] was 52.33 u/L. The ALBUMIN [3] was 4.23 G/DL, the “ALKALINE PHOSPHATASE” value [3] was 353.33 u/L and the “ASPARTATE AMINOTRANSFERASE” value [3] was 105.67 u/L. The “BLOOD UREA NITROGEN” value [3] was 15.33 mg/dL, the “CARBON DIOXIDE” value [3] was 25.67 mmol/L and the CHLORIDE [3] was 100.33 MEQ/L. For the same compound, the CHOLESTEROL [3] was 80.33 mg/dL, the “CREATINE PHOSPHOKINASE” value [3] was 490.67 u/L and the CREATININE [3] was 0.21 mg/dL. For the same compound, the GLUCOSE [3] was 150.33 mg/dL, the “LACTATE DEHYDROGENASE” value [3] was 722 u/L and the LIPASE [3] was 10.33 u/L. The PHOSPHORUS [3] was 12.1 mg/dL, the POTASSIUM [3] was 6.22 MEQ/L and the SODIUM [3] was 143.2 MEQ/L. The “TOTAL BILIRUBIN” value [3] was 0.2 mg/dL and the “TOTAL PROTEIN” value [3] was 6.03 G/DL.
